From patent US20240408099A1, “COMBINATION […] OF KRAS G12D INHIBITORS WITH Pan ErbB FAMILY INHIBITORS” (MIRATI THERAPEUTICS, INC., priority 2021, published 2024)

Legend:
[1] = system: Panc 02.03; assay: Panc 02.03 TGI-43 pancreatic cancer xenograft (Table 5), tumor volumes; type: in vivo, nude/nude mice; conditions: for tumor growth inhibition: single agent, Day 22
Description: (§1) Immunocompromised nude/nude mice are inoculated in the right hind flank with cells harboring a KRas G12D mutation. When tumor volumes reach between 200-400 mm^3 in size, the mice are divided into four to five groups of 5 mice each. The first group is administered vehicle only. […] The fourth or last groups are administered the single agent dose of the KRas G12D inhibitor using the twice daily schedule and/or the 2 sequential days followed by 5 days off schedule in combination with the single agent dose of one of the EGFR inhibitors. […] Tumor volumes are measured using a caliper every two-three days and tumor volumes are calculated by the formula: […].
20 to 30 nude/nude mice per study were inoculated in the right hind limb with 5×10^6 LS180 cells, AsPC-1 cells, GP2D cells, Panc 02.03 cells, SW1990 cells, or SNU-1033 cells. […]

[2] = system: AGS; assay: Composite Synergy Score, Cell-Titer Glo 72 hours, dose matrix with MRTX1133; type: cell-based; conditions: combined with MRTX1133
Description: (§2) Assays for determining the synergy score for the pairwise combinations for each cell line were performed in triplicate. Three 96-well plates plus an additional 4 wells of a separate 96-well control plate for determining baseline luminescence were seeded with 2000 cells/well of a particular cell line in a total volume of 90 μl of a suitable growth medium for that cell line, e.g., RPMI 1640 medium supplemented with 10% FBS and any cell line specific reagents need for growth. The plates were incubated overnight at 37° C. in a 5% CO2 atmosphere.
(§3) To each of the designated baseline wells, 30 μl of Cell-Titer Glo reagent (CTG; Promega Corporation) was added to each well and the plates were incubated for 20 min with shaking at room temperature. Baseline luminescence was quantitated using a BMG ClarioStar multimode plate reader according to the manufacturer's instructions.
(§4) A series of working stock 1000× drug dilutions in 100% DMSO was prepared that includes an 8 point single agent dilution of MRTX 1133 and a 5-point single agent dilution of the pan ErbB family inhibitor. The dilutions used for MRTX1133 and the pan ErbB family inhibitor varied for each individual compound but were in the range of 3- to 6-fold/serial dilution.
(§5) A 10× intermediate dosing plate was prepared in serum free RPMI medium that contains arrayed single agent dilutions MRTX1133 or the pan ErbB family inhibitor. In addition, a matrix of 40 dilution combinations of MRTX1133 and the pan ErbB family inhibitor was prepared as test samples.
(§6) To each corresponding well of the three 96-well plates seeded with the appropriate cell line above, 10 μl of each 10× single agent and the 40 combinations of the dose matrix was added and the plates were incubated for 72 hours at 37 C in 5% CO2 atmosphere. A 30 μl aliquot of Cell-Titer Glo reagent (CTG) was added to each test well, the plates were incubated for 20 min with shaking at room temperature, and luminescence was quantitated using a BMG ClarioStar multimode plate reader according to the manufacturer's instructions.
(§7) The output of the data from each mathematical model is the assignment of a relative synergy score. The data reported in Table 1 are the aggregate sum of the Loewe additivity, Bliss independence, Highest Single Agent and ZIP scores (“Composite Synergy Score”).
(§8) The output of the data from each mathematical model is the assignment of a relative synergy score.

[3] = system: LS513; assay: as above; type: cell-based; conditions: combined with MRTX1133
Description: as §2, §3, §4, §5, §6, §7, §8

[4] = system: SUIT2; assay: as above; type: cell-based; conditions: combined with MRTX1133
Description: as §2, §3, §4, §5, §6, §7, §8

[5] = system: LS180; assay: as above; type: cell-based; conditions: combined with MRTX1133
Description: as §2, §3, §4, §5, §6, §7, §8

[6] = system: SW1990; assay: as above; type: cell-based; conditions: combined with MRTX1133
Description: as §2, §3, §4, §5, §6, §7, §8

[7] = system: Panc0403; assay: as above; type: cell-based; conditions: combined with MRTX1133
Description: as §2, §3, §4, §5, §6, §7, §8

[8] = system: GP2D; assay: as above; type: cell-based; conditions: combined with MRTX1133
Description: as §2, §3, §4, §5, §6, §7, §8

[9] = system: SNU1033; assay: as above; type: cell-based; conditions: combined with MRTX1133
Description: as §2, §3, §4, §5, §6, §7, §8

[10] = system: SNU407; assay: as above; type: cell-based; conditions: combined with MRTX1133
Description: as §2, §3, §4, §5, §6, §7, §8

[11] = system: SNU410; assay: as above; type: cell-based; conditions: combined with MRTX1133
Description: as §2, §3, §4, §5, §6, §7, §8

[12] = system: HPAFII; assay: as above; type: cell-based; conditions: combined with MRTX1133
Description: as §2, §3, §4, §5, §6, §7, §8

[13] = system: SW1990 cells; assay: SW1990 TGI MDS #200407-807 pancreatic cancer xenograft, tumor volumes; type: in vivo, nude/nude mice
Description: as §1
(§9) 20 to 30 nude/nude mice per study were inoculated in the right hind limb with 5×10^6 LS180 cells, AsPC-1 cells, GP2D cells, Panc 02.03 cells, SW1990 cells, or SNU-1033 cells.
Experimental Procedures. 30 nude/nude mice were inoculated with SW1990 cells in the right hind flank. When the tumors reached ˜300 mm^3 six treatment groups were established with five mice per group.

[14] = system: AsPC-1 cells; assay: AsPC-1 TGI-42 pancreatic cancer xenograft, tumor volumes; type: in vivo, nude/nude mice
Description: Immunocompromised nude/nude mice are inoculated in the right hind flank with cells harboring a KRas G12D mutation. When tumor volumes reach between 200-400 mm^3 in size, the mice are divided into four to five groups of 5 mice each. The first group is administered vehicle only. […] The fourth or last groups are administered the single agent dose of the KRas G12D inhibitor using the twice daily schedule and/or the 2 sequential days followed by 5 days off schedule in combination with the single agent dose of one of the EGFR inhibitors. The treatment period varies from cell line to cell line but typically is between 15-40 days. Tumor volumes are measured using a caliper every two-three days and tumor volumes are calculated by the formula: […].
as §9
Experimental Procedures. 30 nude/nude mice were inoculated with AsPC-1 cells in the right hind flank. When the tumors reached ˜300 mm^3 six treatment groups were established with five mice per group.

[15] = 30 mg/kg BID 2x/week, Study Day 1
[16] = 30 mg/kg BID Daily, Study Day 6
[17] = 30 mg/kg BID Daily, Study Day 9
[18] = 30 mg/kg BID Daily, Study Day 13
[19] = 30 mg/kg BID Daily, Study Day 16
[20] = 30 mg/kg BID Daily, Study Day 20
[21] = 30 mg/kg BID Daily, Study Day 23

## CN(C)C/C=C/C(=O)Nc1cc2c(Nc3ccc(F)c(Cl)c3)ncnc2cc1OC1CCOC1 (centres unmarked) [Afatinib, (E)-N-(4-((3-chloro-4-fluorophenyl)amino)-7-((tetrahydrofuran-3-yl)oxy)quinazolin-6-yl)-4-(dimethylamino)but-2-enamide, reference compound]
[1]; 12.5 mg/kg QD (once daily), Study Day 1
  Average Tumor Volumes: 331.548 mm^3
[1]; 12.5 mg/kg QD (once daily), Study Day 4
  Average Tumor Volumes: 361.83 mm^3
[1]; 12.5 mg/kg QD (once daily), Study Day 8
  Average Tumor Volumes: 398.444 mm^3
[1]; 12.5 mg/kg QD (once daily), Study Day 11
  Average Tumor Volumes: 470.498 mm^3
[1]; 12.5 mg/kg QD (once daily), Study Day 15
  Average Tumor Volumes: 660.352 mm^3
[1]; 12.5 mg/kg QD (once daily), Study Day 18
  Average Tumor Volumes: 784.04 mm^3
[1]; 12.5 mg/kg QD (once daily), Study Day 22
  Average Tumor Volumes: 904.724 mm^3
[1]; 12.5 mg/kg daily
  tumor growth inhibition: 27%
[2]
  Composite Synergy Score: 36
[3]
  Composite Synergy Score: 69
[4]
  Composite Synergy Score: 45
[5]
  Composite Synergy Score: 76
[6]
  Composite Synergy Score: 57
[7]
  Composite Synergy Score: 40
[8]
  Composite Synergy Score: 26
[9]
  Composite Synergy Score: 30
[10]
  Composite Synergy Score: 23
[11]
  Composite Synergy Score: −13
[12]
  Composite Synergy Score: 23
[13]; 12.5 mg/kg QD daily, single agent, Day 23
  tumor growth inhibition: 20%
[13]; 12.5 mg/kg QD once daily, Study Day 2
  Average Tumor Volumes: 455.54 mm^3
[13]; 12.5 mg/kg QD once daily, Study Day 6
  Average Tumor Volumes: 536.86 mm^3
[13]; 12.5 mg/kg QD once daily, Study Day 9
  Average Tumor Volumes: 624.98 mm^3
[13]; 12.5 mg/kg QD once daily, Study Day 13
  Average Tumor Volumes: 698.56 mm^3
[13]; 12.5 mg/kg QD once daily, Study Day 16
  Average Tumor Volumes: 778.74 mm^3
[13]; 12.5 mg/kg QD once daily, Study Day 20
  Average Tumor Volumes: 1141.575 mm^3
[13]; 12.5 mg/kg QD once daily, Study Day 23
  Average Tumor Volumes: 1293.5 mm^3
[13]; 12.5 mg/kg QD once daily, Study Day −1
  Average Tumor Volumes: 363.4 mm^3
[14]; 12.5 mg/kg QD, single agent, Day 34
  tumor growth inhibition: 11%
[14]; 12.5 mg/kg QD, Study Day 1
  Average Tumor Volumes: 328.208 mm^3
[14]; 12.5 mg/kg QD, Study Day 6
  Average Tumor Volumes: 463.11 mm^3
[14]; 12.5 mg/kg QD, Study Day 9
  Average Tumor Volumes: 641.776 mm^3
[14]; 12.5 mg/kg QD, Study Day 13
  Average Tumor Volumes: 720.894 mm^3
[14]; 12.5 mg/kg QD, Study Day 16
  Average Tumor Volumes: 768.716 mm^3
[14]; 12.5 mg/kg QD, Study Day 20
  Average Tumor Volumes: 964.434 mm^3
[14]; 12.5 mg/kg QD, Study Day 23
  Average Tumor Volumes: 1002.602 mm^3
[14]; 12.5 mg/kg QD, Study Day 27
  Average Tumor Volumes: 1211.064 mm^3
[14]; 12.5 mg/kg QD, Study Day 30
  Average Tumor Volumes: 1289.494 mm^3
[14]; 12.5 mg/kg QD, Study Day 34
  Average Tumor Volumes: 1252.045 mm^3

## C#Cc1c(F)ccc2cc(O)cc(-c3ncc4c(N5C[C@H]6CC[C@@H](C5)N6)nc(OC[C@@]56CCCN5C[C@H](F)C6)nc4c3F)c12 [MRTX1133, 4-(4-((1R,5S)-3,8-diazabicyclo[3.2.1]octan-3-yl)-8-fluoro-2-(((2R,7aS)-2-fluorohexahydro-1H-pyrrolizin-7a-yl)methoxy)pyrido[4,3-d]pyrimidin-7-yl)-5-ethynyl-6-fluoronaphthalen-2-ol]
[1]; [15]
  Average Tumor Volumes: 329.18 mm^3
[1]; 30 mg/kg BID 2x/week, Study Day 4
  Average Tumor Volumes: 265.246 mm^3
[1]; 30 mg/kg BID 2x/week, Study Day 8
  Average Tumor Volumes: 386.354 mm^3
[1]; 30 mg/kg BID 2x/week, Study Day 11
  Average Tumor Volumes: 392.042 mm^3
[1]; 30 mg/kg BID 2x/week, Study Day 15
  Average Tumor Volumes: 480.434 mm^3
[1]; 30 mg/kg BID 2x/week, Study Day 18
  Average Tumor Volumes: 496.496 mm^3
[1]; 30 mg/kg BID 2x/week, Study Day 22
  Average Tumor Volumes: 549.618 mm^3
[1]; 30 mg/kg BID (twice per week)
  tumor growth inhibition: 72%
[13]; 30 mg/kg BID Daily, Study Day 2
  Average Tumor Volumes: 265.08 mm^3
[13]; [16]
  Average Tumor Volumes: 194.42 mm^3
[13]; [17]
  Average Tumor Volumes: 187.24 mm^3
[13]; [18]
  Average Tumor Volumes: 241.84 mm^3
[13]; [19]
  Average Tumor Volumes: 235.32 mm^3
[13]; [20]
  Average Tumor Volumes: 214.98 mm^3
[13]; [21]
  Average Tumor Volumes: 195.04 mm^3
[13]; 30 mg/kg BID Daily, Study Day −1
  Average Tumor Volumes: 362.82 mm^3
[13]; 30 mg/kg BID daily, single agent, Day 23
  tumor regression: −46%
[14]; [15]
  Average Tumor Volumes: 325.894 mm^3
[14]; 30 mg/kg BID 2x/week, Study Day 6
  Average Tumor Volumes: 394.182 mm^3
[14]; 30 mg/kg BID 2x/week, Study Day 9
  Average Tumor Volumes: 472.586 mm^3
[14]; 30 mg/kg BID 2x/week, Study Day 13
  Average Tumor Volumes: 496.598 mm^3
[14]; 30 mg/kg BID 2x/week, Study Day 16
  Average Tumor Volumes: 554.052 mm^3
[14]; 30 mg/kg BID 2x/week, Study Day 20
  Average Tumor Volumes: 586.5625 mm^3
[14]; 30 mg/kg BID 2x/week, Study Day 23
  Average Tumor Volumes: 640.49 mm^3
[14]; 30 mg/kg BID 2x/week, Study Day 27
  Average Tumor Volumes: 679.96 mm^3
[14]; 30 mg/kg BID 2x/week, Study Day 30
  Average Tumor Volumes: 795.11 mm^3
[14]; 30 mg/kg BID 2x/week, Study Day 34
  Average Tumor Volumes: 862.74 mm^3
[14]; 30 mg/kg BID Daily, Study Day 1
  Average Tumor Volumes: 323.454 mm^3
[14]; [16]
  Average Tumor Volumes: 356.398 mm^3
[14]; [17]
  Average Tumor Volumes: 374.684 mm^3
[14]; [18]
  Average Tumor Volumes: 316.51 mm^3
[14]; [19]
  Average Tumor Volumes: 291.71 mm^3
[14]; [20]
  Average Tumor Volumes: 269.246 mm^3
[14]; [21]
  Average Tumor Volumes: 213.334 mm^3
[14]; 30 mg/kg BID Daily, Study Day 27
  Average Tumor Volumes: 195.354 mm^3
[14]; 30 mg/kg BID Daily, Study Day 30
  Average Tumor Volumes: 216.072 mm^3
[14]; 30 mg/kg BID Daily, Study Day 34
  Average Tumor Volumes: 266.324 mm^3
[14]; 30 mg/kg BID daily, single agent, Day 34
  tumor regression: −9%
